Assay results reported in patent publication US20210300936A1, “PYRAZOLOTRIAZOLOPYRIMIDINE DERIVATIVES AS A2A RECEPTOR ANTAGONIST” (BEIGENE, LTD., priority 2018, published 2021).

Molecular target: human A2A receptor (A2AR) (Homo sapiens, UniProt P29274)
Assay: Luciferase reporter assay (HEK293-A2AR-luc2p/CRE/Hygro cells, 3 nM CGS21680)
Format: cell-based
Conditions: 3 nM CGS21680, 5 h incubation
Method in brief: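 Antagonist (0.1–10000 nM) and 3 nM CGS21680 were co-added for 5 h to stable HEK293-A2AR-luc2p/CRE cells, 18 h after seeding in 1% FBS medium containing adenosine deaminase. Luminescence was normalized to agonist alone (100%), and IC50 came from the dose–inhibition curve.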

Sequence of human A2A receptor (A2AR) (P29274 whole entry): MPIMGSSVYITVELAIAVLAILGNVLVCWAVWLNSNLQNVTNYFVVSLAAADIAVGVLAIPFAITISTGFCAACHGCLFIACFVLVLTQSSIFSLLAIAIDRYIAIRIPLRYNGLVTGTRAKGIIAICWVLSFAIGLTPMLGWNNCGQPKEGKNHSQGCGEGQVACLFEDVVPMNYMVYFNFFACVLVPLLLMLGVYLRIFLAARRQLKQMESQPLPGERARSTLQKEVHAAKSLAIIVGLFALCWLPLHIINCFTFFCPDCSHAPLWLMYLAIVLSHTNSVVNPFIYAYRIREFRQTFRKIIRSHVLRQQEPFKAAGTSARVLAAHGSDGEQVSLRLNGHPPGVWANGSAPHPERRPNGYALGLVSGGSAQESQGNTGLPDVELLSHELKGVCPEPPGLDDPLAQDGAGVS

Structure (SMILES) | IC50 [nM]
CCC(C(=O)N1CCN(c2ccc(OCCOCCOC)cc2)CC1)n1ncc2c1nc(N)n1nc(-c3ccco3)nc21 (centres unmarked) [Compound A8, 2-(5-amino-2-(furan-2-yl)-7H-pyrazolo[4,3-e][1,2,4]triazolo[1,5-c]pyrimidin-7-yl)-1-(4-(4-(2-(2-methoxyethoxy)ethoxy)phenyl)piperazin-1-yl)butan-1-one] | 41.5
CN(C)CCOc1ccc(N2CCN(C(=O)C(c3ccccc3)n3ncc4c3nc(N)n3nc(-c5ccco5)nc43)CC2)cc1 (centres unmarked) [Compound A37, 2-(5-amino-2-(furan-2-yl)-7H-pyrazolo[4,3-e][1,2,4]triazolo[1,5-c]pyrimidin-7-yl)-1-(4-(4-(2-(dimethylamino)ethoxy)phenyl)piperazin-1-yl)-2-phenylethan-1-one] | 2.5
CCCCC(C(=O)N1CCN(c2ccc(OCCN(C)C)cc2)CC1)n1ncc2c1nc(N)n1nc(-c3ccco3)nc21 (centres unmarked) [Compound A32, 2-(5-amino-2-(furan-2-yl)-7H-pyrazolo[4,3-e][1,2,4]triazolo[1,5-c]pyrimidin-7-yl)-1-(4-(4-(2-(dimethylamino)ethoxy)phenyl)piperazin-1-yl)hexan-1-one] | 7.2
CC(C(=O)N1CCN(c2ccc(OCCCN3CCOCC3)cc2)CC1)(c1ccccc1)n1ncc2c1nc(N)n1nc(-c3ccco3)nc21 (centres unmarked) [Compound A76, 2-(5-amino-2-(furan-2-yl)-7H-pyrazolo[4,3-e][1,2,4]triazolo[1,5-c]pyrimidin-7-yl)-1-(4-(4-(3-morpholinopropoxy)phenyl)piperazin-1-yl)-2-phenylpropan-1-one] | 7.3
C[C@@](C(=O)N1CCN(c2ccc(OCCCN3CCCC3)cc2)CC1)(c1ccccc1)n1ncc2c1nc(N)n1nc(-c3ccco3)nc21 [Compound A79a, (S)-2-(5-amino-2-(furan-2-yl)-7H-pyrazolo[4,3-e][1,2,4]triazolo[1,5-c]pyrimidin-7-yl)-2-phenyl-1-(4-(4-(3-(pyrrolidin-1-yl)propoxy)phenyl)piperazin-1-yl)propan-1-one] | 21.4
COCCOc1ccc(N2CCN(C(=O)C(C)(c3ccccc3)n3ncc4c3nc(N)n3nc(-c5ccco5)nc43)C[C@H]2C)cc1 (stereo partly drawn) [Compound A73, 2-(5-amino-2-(furan-2-yl)-7H-pyrazolo[4,3-e][1,2,4]triazolo[1,5-c]pyrimidin-7-yl)-1-((R)-4-(4-(2-methoxyethoxy)phenyl)-3-methylpiperazin-1-yl)-2-phenylpropan-1-one] | 15.6
COCCOc1ccc(N2CCN(C(=O)C(c3ccccc3OC)n3ncc4c3nc(N)n3nc(-c5ccco5)nc43)CC2)cc1 (centres unmarked) [Compound A31, 2-(5-amino-2-(furan-2-yl)-7H-pyrazolo[4,3-e][1,2,4]triazolo[1,5-c]pyrimidin-7-yl)-1-(4-(4-(2-methoxyethoxy)phenyl)piperazin-1-yl)-2-(2-methoxyphenyl)ethan-1-one] | 0.6
COCCOc1cc(F)c(N2CCN(C(=O)C(C)(c3ccccc3)n3ncc4c3nc(N)n3nc(-c5ccco5)nc43)CC2)cc1F (centres unmarked) [Compound A65, 2-(5-amino-2-(furan-2-yl)-7H-pyrazolo[4,3-e][1,2,4]triazolo[1,5-c]pyrimidin-7-yl)-1-(4-(2,5-difluoro-4-(2-methoxyethoxy)phenyl)piperazin-1-yl)-2-phenylpropan-1-one] | 6.4
COCCOc1ccc(N2CCN(C(=O)C(c3ccc(F)c(F)c3)n3ncc4c3nc(N)n3nc(-c5ccco5)nc43)CC2)cc1 (centres unmarked) [Compound A40, 2-(5-amino-2-(furan-2-yl)-7H-pyrazolo[4,3-e][1,2,4]triazolo[1,5-c]pyrimidin-7-yl)-2-(3,4-difluorophenyl)-1-(4-(4-(2-methoxyethoxy)phenyl)piperazin-1-yl)ethan-1-one] | 23.7
CN1CCN(CCOc2ccc(N3CCN(C(=O)C(C)(c4ccccc4)n4ncc5c4nc(N)n4nc(-c6ccco6)nc54)CC3)cc2)CC1 (centres unmarked) [Compound A81, 2-(5-amino-2-(furan-2-yl)-7H-pyrazolo[4,3-e][1,2,4]triazolo[1,5-c]pyrimidin-7-yl)-1-(4-(4-(2-(4-methylpiperazin-1-yl)ethoxy)phenyl)piperazin-1-yl)-2-phenylpropan-1-one] | 4.7
C[C@](C(=O)N1CCN(c2ccc(OCCN3CCOCC3)cc2)CC1)(c1ccccc1)n1ncc2c1nc(N)n1nc(-c3ccco3)nc21 [Compound A80b, (R)-2-(5-amino-2-(furan-2-yl)-7H-pyrazolo[4,3-e][1,2,4]triazolo[1,5-c]pyrimidin-7-yl)-1-(4-(4-(2-morpholinoethoxy)phenyl)piperazin-1-yl)-2-phenylpropan-1-one] | 2.8
CC(C(=O)N1CCN(c2ccccc2C(=O)NCC2(O)COC2)CC1)(c1ccccc1)n1ncc2c1nc(N)n1nc(-c3ccco3)nc21 (centres unmarked) [Compound A100, 2-(4-(2-(5-amino-2-(furan-2-yl)-7H-pyrazolo[4,3-e][1,2,4]triazolo[1,5-c]pyrimidin-7-yl)-2-phenylpropanoyl)piperazin-1-yl)-N-((3-hydroxyoxetan-3-yl)methyl)benzamide] | 25
COCCOc1ccc(N2CCN(C(=O)C(C)(c3ccccc3)n3ncc4c3nc(N)n3nc(-c5ccco5)nc43)CC2)cc1 (centres unmarked) [Compound A63, 2-(5-amino-2-(furan-2-yl)-7H-pyrazolo[4,3-e][1,2,4]triazolo[1,5-c]pyrimidin-7-yl)-1-(4-(4-(2-methoxyethoxy)phenyl)piperazin-1-yl)-2-phenylpropan-1-one] | 6.2
CNCCOc1ccc(N2CCN(C(=O)C(C)n3ncc4c3nc(N)n3nc(-c5ccco5)nc43)CC2)cc1 (centres unmarked) [Compound A30, 2-(5-amino-2-(furan-2-yl)-7H-pyrazolo[4,3-e][1,2,4]triazolo[1,5-c]pyrimidin-7-yl)-1-(4-(4-(2-(methylamino)ethoxy)phenyl)piperazin-1-yl)propan-1-one] | 22
COCCOc1ccc(N2CCN(C(=O)C(C)(c3ccccc3)n3ncc4c3nc(N)n3nc(-c5ccco5)nc43)C[C@@H]2C)cc1 (stereo partly drawn) [Compound A74, 2-(5-amino-2-(furan-2-yl)-7H-pyrazolo[4,3-e][1,2,4]triazolo[1,5-c]pyrimidin-7-yl)-1-((S)-4-(4-(2-methoxyethoxy)phenyl)-3-methylpiperazin-1-yl)-2-phenylpropan-1-one] | 5.1
COCCOc1ccc(N2CCN(C(=O)C(c3ccc4ccccc4c3)n3ncc4c3nc(N)n3nc(-c5ccco5)nc43)CC2)cc1 (centres unmarked) [Compound A33, 2-(5-amino-2-(furan-2-yl)-7H-pyrazolo[4,3-e][1,2,4]triazolo[1,5-c]pyrimidin-7-yl)-1-(4-(4-(2-methoxyethoxy)phenyl)piperazin-1-yl)-2-(naphthalen-2-yl)ethan-1-one] | 13.3
COCCOc1ccc(N2CCN(C(=O)C(C)n3ncc4c3nc(N)n3nc(-c5ccco5)nc43)CC2)cc1 (single isomer, unassigned) [Compound A1a, 2-(5-amino-2-(furan-2-yl)-7H-pyrazolo[4,3-e][1,2,4]triazolo[1,5-c]pyrimidin-7-yl)-1-(4-(4-(2-methoxyethoxy)phenyl)piperazin-1-yl)propan-1-one] | 223

Results, then the molecule that gave them:

IC50 [nM] | Structure (SMILES)
21.7 | COCCOc1ccc(N2CCN(C(=O)C(C)(c3ccccc3)n3cc4c(nc(N)n5nc(-c6ccco6)nc45)n3)CC2)cc1 (centres unmarked) [Compound C25, 2-(5-amino-2-(furan-2-yl)-8H-pyrazolo[4,3-e][1,2,4]triazolo[1,5-c]pyrimidin-8-yl)-1-(4-(4-(2-methoxyethoxy)phenyl)piperazin-1-yl)-2-phenylpropan-1-one]
111 | CC(C(=O)N1CCC[C@@H](O)C1)(c1ccccc1)n1ncc2c1nc(N)n1nc(-c3ccco3)nc21 (stereo partly drawn) [Compound B32, 2-(5-amino-2-(furan-2-yl)-7H-pyrazolo[4,3-e][1,2,4]triazolo[1,5-c]pyrimidin-7-yl)-1-((R)-3-hydroxypiperidin-1-yl)-2-phenylpropan-1-one]
15.4 | CC(C(=O)N1CC2(CCOCC2)C1)(c1ccccc1)n1ncc2c1nc(N)n1nc(-c3ccco3)nc21 (centres unmarked) [Compound B26, 2-(5-amino-2-(furan-2-yl)-7H-pyrazolo[4,3-e][1,2,4]triazolo[1,5-c]pyrimidin-7-yl)-2-phenyl-1-(7-oxa-2-azaspiro[3.5]nonan-2-yl)propan-1-one]
76.5 | CO[C@H]1CCN(C(=O)C(C)(c2ccccc2)n2ncc3c2nc(N)n2nc(-c4ccco4)nc32)C1 (stereo partly drawn) [Compound B29, 2-(5-amino-2-(furan-2-yl)-7H-pyrazolo[4,3-e][1,2,4]triazolo[1,5-c]pyrimidin-7-yl)-1-((S)-3-methoxypyrrolidin-1-yl)-2-phenylpropan-1-one]
90.2 | COCCOCCOc1ccc(N2CCN(C(=O)C(CC(C)C)n3cc4c(nc(N)n5nc(-c6ccco6)nc45)n3)CC2)cc1 (centres unmarked) [Compound C18, 2-(5-amino-2-(furan-2-yl)-8H-pyrazolo[4,3-e][1,2,4]triazolo[1,5-c]pyrimidin-8-yl)-1-(4-(4-(2-(2-methoxyethoxy)ethoxy)phenyl)piperazin-1-yl)-4-methylpentan-1-one]
96.7 | CC(C(=O)N1CCNCC1)(c1ccccc1)n1ncc2c1nc(N)n1nc(-c3ccco3)nc21 (centres unmarked) [Compound B21, 2-(5-amino-2-(furan-2-yl)-7H-pyrazolo[4,3-e][1,2,4]triazolo[1,5-c]pyrimidin-7-yl)-2-phenyl-1-(piperazin-1-yl)propan-1-one]
35.5 | CNCCOc1ccc(N2CCN(C(=O)C(C)n3cc4c(nc(N)n5nc(-c6ccco6)nc45)n3)CC2)cc1 (centres unmarked) [Compound C24, 2-(5-amino-2-(furan-2-yl)-8H-pyrazolo[4,3-e][1,2,4]triazolo[1,5-c]pyrimidin-8-yl)-1-(4-(4-(2-(methylamino)ethoxy)phenyl)piperazin-1-yl)propan-1-one]
3180 | COCCOCCOc1ccc(N2CCN(C(=O)C(C)(C)n3cc4c(nc(N)n5nc(-c6ccco6)nc45)n3)CC2)cc1 [Compound C6, 2-(5-amino-2-(furan-2-yl)-8H-pyrazolo[4,3-e][1,2,4]triazolo[1,5-c]pyrimidin-8-yl)-1-(4-(4-(2-(2-methoxyethoxy)ethoxy)phenyl)piperazin-1-yl)-2-methylpropan-1-one]
79.8 | COCCOc1ccc(N2CCN(C(=O)C(C)(c3ccccc3)n3cc4c(nc(N)n5nc(-c6ccco6)nc45)n3)CC2)cc1 (single isomer, unassigned) [Compound C25a]
